From patent publication US12171229B2, “Heteroaryl-triazole and heteroaryl-tetrazole compounds as pesticides” (BAYER AKTIENGESELLSCHAFT, priority 2018, dated 2024) come the findings set out here.

Common to all, as to type: in vivo
Assay [1] concerns Myzus persicae. The experiment in a line: Myzus persicae spray test. Particulars: foliar, 120 h, after 5 days, Chinese cabbage leaf disks. In short, it runs like this:
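Percent kill was recorded 5 days after spraying. Test solutions, prepared with solvent and diluted in 1000 ppm emulsifier water, were applied to Brassica pekinensis leaf disks carrying mixed-instar green peach aphids.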

The test system of assay [2] is Ctenocephalides felis. The experiment in a line: Ctenocephalides felis in-vitro contact test, adult cat flea. Particulars: 5 μg/cm^2 (=500 g/ha), after 48 hours, adult cat fleas, read-out: efficacy (fleas dead or moribund). The method, then: Ctenocephalides Felis—In-Vitro Contact Tests Adult Cat Flea 9 mg compound is solved in 1 ml acetone and diluted with acetone to the desired concentration. 250 μl of the test solution is filled in 25 ml glass test tubes and homogeneously distributed on the inner walls by rotation and tilting on a shaking device (2 h at 30 rpm). With a compound concentration of 900 ppm, an inner surface of 44.7 cm^2 and a homogeneous distribution, a dose of 5 μg/cm^2 is achieved. After the solvent has evaporated, each test tube is filled with 5-10 adult cat fleas (Ctenocephalides felis), closed with a perforated lid and incubated in a lying position at room temperature and relative humidity. After 48 hours efficacy is determined. The fleas are patted on the ground of the tubes and are incubated on a heating plate at 45-50° C. for at most 5 minutes. Immotile or uncoordinated moving fleas, which are not able to escape the heat by climbing upwards, are marked as dead or moribund. […] An efficacy of 100% means all fleas are dead or moribund; 0% means no fleas are dead or moribund.

The test system of assay [3] is Myzus persicae. The experiment in a line: Myzus persicae oral test. As to conditions: 120 h, 4 ppm, after 5 days. In short, it runs like this: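 Aphid mortality (%) was recorded 5 days after a mixed Myzus persicae population began sucking, through parafilm, on compound solutions (acetone stock diluted with water) combined with sugar-supplemented IPL41 medium.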
The next assay deals with Diabrotica balteata. The experiment in a line: Diabrotica balteata spray test. As to conditions: Diabrotica balteata, in Triticum aestivum, 168 h, after 7 days, larvae on wheat seeds, read-out: efficacy (seedlings grown up); for pest or weed control at 80 µg/disc, 250 g/ha: 80 μg/well (=250 g/ha); for pest or weed control at 160 µg/disc, 500 g/ha: 160 μg/well (=500 g/ha). In short, it runs like this: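 Scoring at 7 days compares seedling growth with untreated, uninfested controls (100% = equal growth, 0% = none grown). Wheat seedlings germinated 1 day on agar, 5 per well, received a spray of test solution made in 1000 ppm emulsifier water. Each unit then received 10–20 beetle larvae.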

The next assay has as its system Nezara viridula. The experiment in a line: Nezara viridula spray test. Particulars: 96 h, after 4 days, larvae on barley plants. In short, it runs like this: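 Mortality (%) was assessed at day 4, from 0% (no bugs dead) to 100% (all dead). The spray solution was compound diluted to test concentration in water with 1000 ppm emulsifier and applied to barley carrying southern green stink bug larvae.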

In a further assay the test system is Nilaparvata lugens. As to the kind of experiment: Nilaparvata lugens spray test. As to conditions: 336 h, after 14 days, rice plants. The method, then: Nilaparvata lugens—Spray Test
To produce a suitable preparation of active compound, 1 part by weight of active compound is mixed with the stated amount of solvents and is diluted with water, containing an emulsifier concentration of 1000 ppm, to the desired concentration. Further test concentrations are prepared by dilution with emulsifier containing water.
Rice plants (Oryza sativa) are sprayed with a preparation of the active ingredient of the desired concentration and the plants are infested with the brown planthopper (Nilaparvata lugens).
After 14 days mortality in % is determined. 100% means all planthoppers have been killed and 0% means none of the planthoppers have been killed.

For the next assay, the system named is Spodoptera frugiperda. As to the kind of experiment: Spodoptera frugiperda spray test. Particulars: 168 h, after 7 days, larvae on maize leaf sections. In short, it runs like this: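 Read-out: % larval mortality at day 7, where 100% means all killed and 0% none killed. Compound diluted in water with 1000 ppm emulsifier, sprayed onto Zea mays leaf sections; dried sections then infested with S. frugiperda larvae.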

Assay [4] relates to Ctenocephalides felis. The experiment in a line: Ctenocephalides felis oral test. Particulars: 48 h, 100 ppm in cattle blood, after 2 days, adult unfed cat fleas. An outline of the steps: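 Compound dissolved in DMSO and diluted in cattle blood to test concentration, offered to ~20 unfed adult fleas via a parafilm-sealed blood chamber held at 37° C (fleas at room temperature). Kill recorded at 2 days as % mortality.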

In another assay the test system is Boophilus microplus. As to the kind of experiment: Boophilus microplus injection test. As to conditions: Rhipicephalus microplus, 168 h; 20 μg/animal injected into the abdomen; adult engorged female ticks; egg deposition after 7 days; read-out: efficacy (infertile eggs). In short, it runs like this: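 Efficacy, from 0% (all eggs fertile) to 100% (all infertile), was scored on eggs laid by five engorged adult females. Each female was injected intra-abdominally with 1 μl of compound solution in DMSO. Fertile egg laying was checked at 7 days, with uncertain eggs kept until hatching at about 42 days.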

Assay [5] deals with Culex quinquefasciatus strain P00. As to the kind of experiment: Culex quinquefasciatus test (CULXFA surface treatment & contact assay). Particulars: 24 hours after contact, read-out: efficacy (mortality). The method, then: Culex Quinquefasciatus Test (CULXFA Surface Treatment & Contact Assay)
(§1) Solvent: Aceton+2000 ppm rapeseed oil methyl ester (RME)
In order to produce a sufficient, active ingredient containing solution it is necessary to solve the test compound in the solvent-mix (acetone at 2 mg/ml/RME 2000 ppm). This solution is pipetted onto a glazed tile and after evaporation of the acetone, adult mosquitoes of the species Culex quinquefasciatus strain P00 are placed onto the dried surface. The exposure time is 30 minutes.
(§2) Mortality in percent (%) is determined 24 hours after contact of the insects to the treated surface. 100% mortality means that all tested insects are dead, whereas 0% means that no insect died.

Assay [6] relates to Anopheles funestus strain FUMOZ-R. As to the kind of experiment: Anopheles funestus test (ANPHFU surface treatment & contact assay). Particulars: surface concentration 20 mg/m^2, exposure 30 minutes, 24 hours after contact, read-out: efficacy (mortality). The method, then:
Anopheles funestus Test (ANPHFU Surface Treatment & Contact Assay)
as §1
In order to produce a sufficient, active ingredient containing solution it is necessary to solve the test compound in the solvent-mix (acetone at 2 mg/ml/RME 2000 ppm). This solution is pipetted onto a glazed tile and after evaporation of the acetone, adult mosquitoes of the species Anopheles funestus strain FUMOZ-R (Hunt et al., Med. Vet. Entomol. 2005 September; 19(3): 271-275) are placed onto the dried surface. The exposure time is 30 minutes.
as §2

Assay [7] relates to Aedes aegypti strain MONHEIM. As to the kind of experiment: Aedes aegypti test (AEDSAE surface treatment & contact assay). Particulars: 24 hours after contact, read-out: efficacy (mortality); for mortality at 4 mg/m2: surface concentration 4 mg/m^2, exposure 30 minutes. An outline of the steps: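 Compound dissolved in acetone (2 mg/ml) with 2000 ppm rapeseed oil methyl ester, applied to glazed tile and dried; adult strain MONHEIM mosquitoes exposed 30 minutes. Percent mortality scored 24 hours after contact.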

The mark [8] stands for this setting: surface concentration 20 mg/m^2, exposure 30 minutes.

By mortality is commonly meant the percentage killed. Take `C[C@H](NC(=O)c1cc(C(F)(F)F)cc(C(F)(F)F)c1)c1ncnn1-c1ncc(F)cc1F` [Example I-077]: the results for the mortality at 100 g/ha in the assay with Myzus persicae [1], in the assay on Nezara viridula and in the assay with Spodoptera frugiperda were 90%, 100% and 100%, respectively. Besides, the mortality at 500 g/ha with Myzus persicae [1] was 90%; in the assay with Nezara viridula, 100%; in the assay with Nilaparvata lugens it was 100%; in the assay with Spodoptera frugiperda it was 100%. Besides, in the assay on Ctenocephalides felis [2], the pest or weed control at 5 µg/cm2 was found to be 100%. Further, the mortality at 4 ppm with Myzus persicae [3] was found to be 100%. In the assay on Diabrotica balteata, the pest or weed control at 80 µg/disc, 250 g/ha was found to be 100%. Also, the pest or weed control at 160 µg/disc, 500 g/ha with Diabrotica balteata was 100%. The same molecule gave a mortality at 100 ppm in the assay on Ctenocephalides felis [4] of 100%. Moreover, in the assay with Boophilus microplus, the pest or weed control at 0.02 mg is 100%.
For the molecule `CC[C@H](NC(=O)c1cc(Cl)cc(OC(F)(F)F)c1)c1ncnn1-c1ccc(C#N)cn1` [Example I-070], the mortality at 500 g/ha with Nilaparvata lugens and in the assay with Spodoptera frugiperda was 100% in each case. Moreover, in the assay on Spodoptera frugiperda, the mortality at 100 g/ha was determined as 100%. The same molecule returned a mortality at 100 ppm in the assay with Ctenocephalides felis [4] of 80%. The pest or weed control at 0.02 mg with Boophilus microplus came out at 100%.
Turning to `CC(=O)Nc1ccc(-n2ncnc2[C@H](C)NC(=O)c2cc(Cl)cc(C(F)(F)F)c2)nc1` [Example I-033], the mortality at 100 g/ha with Myzus persicae [1] and in the assay with Spodoptera frugiperda was 100% in each case. Moreover, the mortality at 500 g/ha with Myzus persicae [1], in the assay with Nezara viridula and in the assay with Spodoptera frugiperda was 100% throughout. The mortality at 4 mg/m2 is 90 to 100% in assay [5] (surface concentration 4 mg/m^2, exposure 30 minutes) and 90 to 100% in [7]. For the same molecule, the mortality at 20 mg/m2 in assay [5] (setting [8]), in [6] and in assay [7] (setting [8]) was 90 to 100% each time. Besides, in the assay on Ctenocephalides felis [2], the pest or weed control at 5 µg/cm2 was 100%. In the assay on Myzus persicae [3], this molecule came in with a mortality at 4 ppm of 100%. In addition, the pest or weed control at 80 µg/disc, 250 g/ha with Diabrotica balteata was determined as 100%. Also, in the assay with Diabrotica balteata, the pest or weed control at 160 µg/disc, 500 g/ha amounted to 100%. The molecule further showed a mortality at 100 ppm in the assay on Ctenocephalides felis [4] of 100%. Further, the pest or weed control at 0.02 mg in the assay with Boophilus microplus is 100%.
With `CC(NC(=S)c1cc(Cl)cc(C(F)(F)F)c1)c1ncnn1-c1ccc(C#N)cn1` (stereo in doubt) [Example I-080, 3-chloro-N-{(1R)-1-[1-(5-cyanopyridin-2-yl)-1H-1,2,4-triazol-5-yl]ethyl}-5-(trifluoromethyl)benzenecarbothioamide], the pest or weed control at 5 µg/cm2 in the assay on Ctenocephalides felis [2] came to 100%. For the same molecule, in the assay on Diabrotica balteata, the pest or weed control at 80 µg/disc, 250 g/ha came out at 100% and the pest or weed control at 160 µg/disc, 500 g/ha amounted to 80%. For the same molecule, in the assay with Nezara viridula, the mortality at 100 g/ha stood at 100% and the mortality at 500 g/ha stood at 100%. Moreover, the mortality at 500 g/ha with Nilaparvata lugens stood at 100%. Moreover, in the assay with Spodoptera frugiperda, the mortality at 100 g/ha is 100% and the mortality at 500 g/ha worked out at 100%. This molecule also yielded a mortality at 100 ppm in the assay on Ctenocephalides felis [4] of 100%. The pest or weed control at 0.02 mg in the assay with Boophilus microplus stood at 100%.
Take `CC[C@H](NC(=O)c1cc(C(F)(F)F)cc(C(F)(F)F)c1)c1ncnn1-c1ccc([N+](=O)[O-])cn1` [Example I-069]: the pest or weed control at 160 µg/disc, 500 g/ha in the assay on Diabrotica balteata was found to be 100%. Further, the mortality at 500 g/ha in the assay on Nilaparvata lugens is 70%; in the assay on Spodoptera frugiperda it was 100%. Moreover, the pest or weed control at 0.02 mg with Boophilus microplus is 100%.
For `CC[C@H](NC(=O)c1cc(C(F)(F)F)cc(C(F)(F)F)c1)c1ncnn1-c1ccc(NC(=O)C2CC2)cn1` [Example I-094], the pest or weed control at 80 µg/disc, 250 g/ha in the assay on Diabrotica balteata amounted to 100%. Also, the mortality at 500 g/ha with Nezara viridula and in the assay on Nilaparvata lugens was 100% in each case. In addition, the mortality at 100 ppm in the assay with Ctenocephalides felis [4] was found to be 100%.
As for `C[C@H](NC(=O)c1cc(Cl)cc(C(F)(F)F)c1)c1ncnn1-c1ccc(C(=O)NCC(F)(F)F)cn1` [Example I-078], in the assay on Ctenocephalides felis [2], the pest or weed control at 5 µg/cm2 came to 90%. Further, the mortality at 4 ppm in the assay on Myzus persicae [3] came out at 100%. In addition, in the assay with Diabrotica balteata, the pest or weed control at 80 µg/disc, 250 g/ha was 100% and the pest or weed control at 160 µg/disc, 500 g/ha was found to be 80%. In the assay with Nezara viridula, this molecule returned a mortality at 100 g/ha of 90% and a mortality at 500 g/ha of 100%. Also, the mortality at 500 g/ha in the assay with Nilaparvata lugens came to 100%. In the assay with Spodoptera frugiperda, this molecule gave a mortality at 100 g/ha of 100% and a mortality at 500 g/ha of 100%. Further, in the assay with Ctenocephalides felis [4], the mortality at 100 ppm worked out at 100%. Besides, the pest or weed control at 0.02 mg in the assay on Boophilus microplus worked out at 100%.
As for `C[C@H](NC(=O)c1cc(Cl)cc(C(F)(F)F)c1)c1ncnn1-c1ccc(OCC(F)(F)F)cn1` [Example I-039, 3-chloro-N-[(1S)-1-{1-[5-(2,2,2-trifluoroethoxy)pyridin-2-yl]-1H-1,2,4-triazol-5-yl}ethyl]-5-(trifluoromethyl)benzamide], the mortality at 4 mg/m2 in assay [7] is 90 to 100%. Also, in the assay with Diabrotica balteata, the pest or weed control at 80 µg/disc, 250 g/ha was 100% and the pest or weed control at 160 µg/disc, 500 g/ha is 100%. The mortality at 500 g/ha with Nilaparvata lugens is 100%. In the assay on Spodoptera frugiperda, the mortality at 100 g/ha was determined as 100% and the mortality at 500 g/ha came to 100%. This molecule also returned a mortality at 100 ppm in the assay on Ctenocephalides felis [4] of 100%. Further, in the assay with Boophilus microplus, the pest or weed control at 0.02 mg came out at 100%.
